Data published in patent US20090239875A1, “Protection of ferulic acid and/or tetramethylpyrazine against retinal ischaemia, glaucoma and siderosis oculi” (Committee on Chinese Medicine and Pharmacy, Department of …, priority 2008, published 2009).
Blank lines part the entries; values can stand above or below the compound they belong to.

Experiments:
[1] = system: glutamate release in the retina
Procedure: Using the same microdialysis system as the ROS assay in vivo, each microdialysate was assayed for the presence of derivatized glutamate product by HPLC with a fluorescence detector (FL; model CMA/280, CMA/Microdialysis, Stockholm, Sweden). The derivatization reaction was carried out at room temperature. O-phthalaldehyde (OPA; 27 mg; Fisher Scientific, Loughborough, UK) was dissolved in 1 ml methanol, 9 ml 0.4 M potassium tetraborate (MW: 303.53; borate buffer: 1.5 g borate plus pure water adjusted to pH 9.5 with 6 M NaOH and then added with water to 100 ml) and 5 μl β-mercaptoethanol (Fisher Scientific, Loughborough, UK). The OPA stock reagent was covered in foil and stored at −20° C. for 1 month. The OPA working solution was prepared each day by diluting 1 ml of the OPA stock reagent with 3 ml of potassium tetraborate (0.4 M). […] For the HPLC separation, the detector output voltage (signal) was monitored using one data system (Scientific Information Service Corporation, Taiwan). […]
Before use, the mobile phase was filtered through a 0.22 μm filter (Millipore) using vacuum assistance. […] The detection sensitivity was 10 M. All standard samples and test samples were analyzed in duplicate.

cortical cells = conditions: 40 μM FeSO4 vs saline; n=5
Procedure: The cortical cells to be tested were placed on a cover slip and loaded with calcium ion sensitive dye by incubation with a final concentration of 5 μM of the acetoxymethyl ester form of Fura-2 for 30 min at 37° C. in the 1 ml loading buffer. The cover slip was washed three times with buffer containing 150 mM NaCl, 5 mM KCl, 2.2 mM CaCl2, 1 mM MgCl2, 5 mM glucose, 10 mM HEPES, pH 7.4. A micropipette was pulled from a glass capillary by a micropipette puller (P-97, Sutter Instrument Co.) and the tip was polished in a microforge (o.d. 2 μm, MF-83, Narishige). The micropipette was backfilled with the test compound (40 μM FeSO4 or saline) using a fine tip syringe. The cover slip was mounted on an inverted microscope to measure single-cell fluorescence. The ejection mircropipette was positioned at a distance of 10 μm from a cell. A short pulse (0.5s) of the test compound was then applied to a single cell through the micropipette by a microinjection system (Picospritzer II, General Valve) with a pressure of 15 psi. The intracellular calcium concentration, [Ca^2+]i, was calculated using the ratio between the fluorescence at 340 nm and at 380 nm (F340/F380). Changes in the fluorescence ratio represent the changes in the [Ca^2+]i (Yang, D. M., et al. J Microsc 209: 223-227, 2003).

[2] = system: rats given experimental siderosis; experiment: Flash ERG in experimental siderosis (intravitreous FeSO4 or iron particle); conditions: for Effect on FeSO4 induced reduction in the b-wave amplitudes: 0.5 or 0.1 nmoles pre-administered, 25 nmole FeSO4, 3 and 5 days after siderosis, vs saline-treated animals
Procedure: The animals were first dark adapted for at least 8 hours, anaesthetized as already described and the pupils dilated with 1% tropicamide and 2.5% phenylephrine. The animal was then placed in a stereotaxic frame and the body temperature maintained at 37° C. with an electrical blanket. A platinum wire loop was placed on the corneal surface to act as the recording electrode. A ground electrode was connected to the scruff of the back together with a reference electrode to the tongue of the animal. A strobe was placed 5 cm in front of the animal to provide a stimulus of 0.5 Hz. Fifteen consecutive responses were recorded at two-second intervals and at 10 kHz; the responses were amplified and averaged using an amplifier P511/regulated power supply RPS107/stimulator PS22 (Grass-Telefactor, Astro-Med. Inc., R1, USA). The a-wave amplitude was measured from the baseline to the trough of the a-wave and the b-wave amplitude was measured from the trough of the a-wave to the peak of the b-wave.
The Wistar rats were anesthetized with an intramuscular injection of ketamine (100 mg/kg) and xylazine (5 mg/kg), and placed in a stereotaxic frame. The chronic model of experimental siderosis was established as follows. Through a port punctured by a 20-gauge intravenous catheter (0.5 mm from the corneal limbus), an autoclaved defined iron particle was slowly and carefully implanted into the vitreous cavity of one eye of each experimental rat through the catheter sheath by the catheter inner shaft (a needle). The punctured wound was then sutured with sterilized 10-0 nylon to keep a close system. Similarly (0.5 mm from the corneal limbus) and guided by the 20-gauge intravenous catheter, an autoclaved acrylate chip was implanted into the vitreous cavity of one eye of each control rat.
Similarly, the acute model of experimental siderosis was set up utilizing various concentrations of iron sulfate with the control group being injected with saline. The animals were kept normothermic with a heated water jacket after anesthesia and were placed on an electrical blanket during recovery (both set at 37° C.).
(§2) Iron toxicity and the formation of .OH were stimulated by an intravitreous application of FeSO4 with or without the presence of the test compounds FA and/or TMP. For the dose-response iron toxicity experiments, 24 mM (72 nmoles), 8 mM (24 nmoles) and 0.8 mM (2.4 nmoles) of FeSO4 were utilized. To test drug biochemical effects on the oxidative stress caused by the experimental siderosis, an intravitreous injection of FA (100 mM) was carried out 60 minutes before siderosis. In further electro-physiological and immuohistochemical studies, with or without pre-administration of 0.5 or 0.1 nmoles of FA/TMP, a medium amount of FeSO4 (25 nmole) was chosen to induce damage due to such as an oxidative stress so as not to reach the maximal pharmacological effect.

hydroxyl radicals (.OH) [3] = experiment: ROS assay in vivo (2,3-DHBA by vitreous microdialysis) in experimental siderosis
Procedure: Iron toxicity and the formation of .OH were stimulated by an intravitreous application of FeSO4 with or without the presence of the test compounds FA and/or TMP. For the dose-response iron toxicity experiments, 24 mM (72 nmoles), 8 mM (24 nmoles) and 0.8 mM (2.4 nmoles) of FeSO4 were utilized. To test drug biochemical effects on the oxidative stress caused by the experimental siderosis, an intravitreous injection of FA (100 mM) was carried out 60 minutes before siderosis.
Trapping of hydroxyl radicals was accomplished by perfusing physiological saline containing 5 mM salicylic acid through a microdialysis probe (CMA/12, PC 14/01, CMA/Microdialysis, Stockholm, Sweden) inserted into the vitreous cavity of a rat eye after intra-vitreous implantation of either an iron or acrylate chip for the defined chronic model and its control. […] Salicylate was infused at the rate of 1.1 μl/min using a 1-ml Exmire microsyringe attached to a microdialysis pump (CMA-100, CMA/Microdialysis, Stockholm, Sweden). This was carried out every 15 or 20 minutes starting either 60 or 20 minutes before the implantation/injection and continued for 6 hours or 120 minutes following treatment, respectively. […] The hydroxyl radicals were quantified by using 8, 16, 24, 32 and 40 pmoles of 2,3-DHBA (which is photosensitive and can be dissolved in ethanol) as an internal standard.

[4] = system: rats subjected to 60 min retinal ischaemia plus reperfusion (I/R); experiment: Flash ERG b-wave ratio after 60 min HIOP-induced retinal ischaemia plus reperfusion; assay type: in vivo, Wistar rat
Description: Six-week old Wistar rats (body weight: 250˜500 g) were anaesthetized with an intramuscular injection of ketamine and xylazine as described above and placed in a stereotaxic frame. The anterior chamber of one eye, with the other serving as control, was cannulated with a 30-gauge needle connected to a 0.9% saline reservoir; this caused an increase in IOP to 120 mmHg. A whitening of the iris and the fundus of the retina confirmed induction of an ischaemic insult (Block, F., et al. Gen Pharmacol. 30(3):281-7, 1997).
(§1) For electro-physiological, immuohistochemical, and molecular biological studies, drug administration was carried out with pre-administration (60 minutes before HIOP) of vehicle (saline for FA/TMP), FA (0.5 or 0.1 nmole), or TMP (0.5 nmole). The 60-minute HIOP procedure to induce ischaemic damage was carried out as defined. Intra-vitreous injection (i.v.i.) of 5 μl of each compound was given to the ‘ischaemic’ eye of each test rat using a 30-gauge needle attached to a 20 μl Hamilton syringe. As a control, the same volume of vehicle was intravitreously injected into the “ischaemic” eye of each control rat. In both cases, the fellow untreated eye acted as a normal control eye. In this case, FA, TMP, or vehicle was applied only to the eye (ipsilateral) which received ischaemia. Dose-response experiments for FA will also be performed.

[5] = system: ChAT immunoreactivity (cholinergic amacrine cells) in the ischaemic retina; experiment: ChAT immunofluorescence of the retina after ischaemia/reperfusion; assay type: in vivo, Wistar rat; conditions: 7 days reperfusion
Procedure: On day 7 after retinal ischaemia pre-treated with vehicle or tested compounds, the Wistar rats were killed by an overdose of sodium pentobarbitone injected into the peritoneal cavity as mentioned earlier. Rat retinas were carefully and rapidly dissected from the eyecups with the aim of completely detaching the sensory retina from the RPEs. They were incubated in Mg^2+-free Locke's buffer containing: 154 mM NaCl, 5.6 mM KCl, 2.3 mM CaCl2, 3.6 mM NaHCO3, 5 mM N-[2-hydroxyethyl]piperazine-N′-[2-ethanesulfonic acid] (HEPES) and 5.6 mM D-glucose. The Locke's solution was briefly equilibrated before use with a gas mixture of 95% O2 and 5% CO2 at 37° C., pH 7.4. Retinal pieces were fixed for a further 45 minutes in 4% (w/v) paraformaldehyde in sodium phosphate buffer (0.2 M NaH2PO4.2H2O; 0.2M Na2HPO4; pH 7.4) and then transferred to 30% sucrose in sodium phosphate buffer for cryosectioning. Retinas were orientated and similarly mounted on a metal stand using O.C.T. compound (Merck Ltd) and then promptly frozen with dry ice. In this way, sections from similar areas were produced and thus the retinal sections (10 μm) had approximately the same eccentricity, which allowed direct comparison. […]

[6] = system: Thy-1 immunoreactivity (retinal ganglion cells) in the ischaemic retina; experiment: Thy-1 immunofluorescence of the retina after ischaemia/reperfusion; assay type: in vivo, Wistar rat; conditions: 0.5 nmole i.v.i. pre-treatment; 7 days after I/R
Procedure: as §1
On day 7 after retinal ischaemia pre-treated with vehicle or tested compounds, the Wistar rats were killed by an overdose of sodium pentobarbitone injected into the peritoneal cavity as mentioned earlier. Rat retinas were carefully and rapidly dissected from the eyecups with the aim of completely detaching the sensory retina from the RPEs. They were incubated in Mg^2+-free Locke's buffer containing: 154 mM NaCl, 5.6 mM KCl, 2.3 mM CaCl2, 3.6 mM NaHCO3, 5 mM N-[2-hydroxyethyl]piperazine-N′-[2-ethanesulfonic acid] (HEPES) and 5.6 mM D-glucose. […]

Thy-1 mRNA = experiment: Semi-quantitative RT-PCR of Thy-1 mRNA in the retina after ischaemia/reperfusion; assay type: in vivo, Wistar rat; conditions: 7 days after I/R, sham operation 100.0000, n=4
Procedure: as §1
Levels of Thy-1 mRNAs present in the retinas were determined using a semi-quantitative RT-PCR technique. These were compared with the mRNA levels measured for the house-keeping gene β-actin as an internal standard (Nucci, C., et al. Invest Opthalmol V is Sci. 48(7):2997-3004, 2007). Seven days after sham operation alone or retinal ischaemia pre-treated with vehicle or defined chemicals, the rats were killed and the retinas removed and sonicated in TriReagent (as per manufacturer's instructions). Total retinal RNA was isolated and first strand cDNA synthesis was performed on 4 μg DNase-treated RNA (Nash, M. S., et al. Invest. Opthalmol. Vis. Sci. 40:1293-8, 1999). […]
The PCR reaction products were separated on 1.5% agarose gels using ethidium bromide for visualization. The relative abundance of each PCR product was determined by analyzing photographs of the gels by SigmaScan (Jandel Scientific, Corte Madera, Calif.). […]

hydroxyl radicals (.OH) [7] = experiment: Salicylate trapping / vitreous microdialysis of hydroxyl radicals (2,3-DHBA) in HIOP-induced retinal ischaemia; assay type: in vivo, Wistar rat; conditions: for Levels of 2,3-DHBA (.OH) in vitreous dialysate: at 60 minutes of HIOP-induced retinal ischaemia, n=4
Description: Rats were anesthetized and placed in a stereotaxic frame. This approach was adapted from Louzada-Junior et al with further modification. The microdilaysis tube was inserted into the vitreous cavity through the nonvascular pars plana of the sclera (0.5 mm from the corneal limbus) after it had been pre-punctured with a 25-gauge needle. This avoided the problem of bleeding into the vitreous cavity with consequent contamination of vitreous. With the microdialysis probe in position, the whole retina was subjected to HIOP-induced ischaemia for 120 minutes.
After an equilibration period of 45 min, a stable baseline was obtained. HIOP-induced retinal ischaemia was then performed. Samples were collected every 15 minutes starting 45 minutes before ischaemia and continuing for the subsequent 120-minute ischaemia. The microdialysates collected from the microdialysis probe were deposited into polyethylene vials (Microbiotech, Stockholm, Sweden) containing 15 μl of 0.1 M perchloric acid and were stored at −70° C. until analysis. The formation of .OH was quantified as the increase in 2,3-DHBA, which is the hydroxylative product of salicylic acid. Since 2,5-DHBA can also be produced via enzymatic pathways by virtue of P-450, 2,3-DHBA is considered to be a specific marker of .OH. Eluted microdialysates were directly injected into and 2,3-DHBA was analyzed by a high performance liquid chromatograph coupled with an electrochemical detector (HPLC-EC; Model LC-4C, Bioanalytical System Inc., West Lafayette, IN, USA).
The DHBA compound was oxidized using a glassy carbon working electrode (oxidation potential: +750 mV; model MF 1000, Bioanalytical System Inc., West Lafayette, IN, USA) and an Ag/AgCl reference electrode (model MW 2021, Bioanalytical System Inc., West Lafayette, IN, USA) with a special thin-layer gasket for the microbore LC-EC. In order to minimize dead volume, the column was connected directly between the micro-sampler and the working electrode. The mobile phase included 1-heptane sulfonic acid sodium salt (MW: 202.25) 3.15 g, EDTA 0.15 g, phosphoric acid 4.5 ml, triethylamine 5.25 ml, acetonitrile 255 ml, distilled water (added to 1.5 liters), pH 2.7. […] This is the first invention utilizing the defined modified microdialysis system for the measurement of .OH in the rat eye in vivo.
For electro-physiological, immuohistochemical, and molecular biological studies, drug administration was carried out with pre-administration (60 minutes before HIOP) of vehicle (saline for FA/TMP), FA (0.5 or 0.1 nmole), or TMP (0.5 nmole). The 60-minute HIOP procedure to induce ischaemic damage was carried out as defined. Intra-vitreous injection (i.v.i.) of 5 μl of each compound was given to the ‘ischaemic’ eye of each test rat using a 30-gauge needle attached to a 20 μl Hamilton syringe. […]

[8] = system: ChAT immunoreactivity (cholinergic amacrine neurones) in the siderotic retina; experiment: ChAT immunofluorescence of the retina after experimental siderosis; assay type: in vivo, Wistar rat; conditions: 0.5 nmole i.v.i. 60 minutes before siderosis; 25 nmole FeSO4 for 5 days
Procedure: as §2
The time course of the experiments involved enucleation of the rat eyes and retrieval of the retinal pieces on day 1 (Western blot), day 5 (immunohistochemistry) and day 28 (histopathology) after experimental siderosis with/without each test compound.
For immunohistochemical analysis, rats were intracardially perfused first with 0.9% saline and then with 4% (w/v) paraformaldehyde. […] In order to observe the expression of ‘ROS-related enzymes’, retinal sections were incubated with primary antibody: rabbit polyclonal anti-rat manganese SOD (1:100; Upstate, NY) or rabbit anti-catalase (1:1000; Calbiochem, CA). […]

[9] = FeSO4 injected five days earlier, particular example
[10] = 0.5 nmole i.v.i. 60 min before 60 min HIOP, 3 days after I/R
[11] = 0.5 nmole i.v.i. 60 min before 60 min HIOP, 5 days after I/R
[12] = 0.5 nmole i.v.i. 60 min before 60 min HIOP, 7 days after I/R
[13] = 0.5 nmole i.v.i. 60 min before ischaemia
[14] = 0.5 nmole i.v.i. 1 hour before ischaemia

Compound: ferrous sulfate [FeSO4]
Glutamate release in the retina ([1]; 24 mM and/or 8 mM FeSO4, peaks 20 and 40 minutes after siderosis, vs saline): dose-dependent release of glutamate | Glutamate concentration in vitreous dialysate ([1]; 20 minutes after ferrous sulfate treatment (8 mM)): 722 nM | Change in [Ca^2+]i (fura-2 ratio F340/F380) (cortical cells): significant increase | ERG b-wave ratio after intravitreous FeSO4 ([2]; 8 mM FeSO4 (3 μl) intravitreous, at 2 hours): about 45% | ERG a-wave ratio of siderotic eye to normal fellow eye [2, 9]: 40.56% | ERG b-wave ratio of siderotic eye to normal fellow eye [2, 9]: 30.70% | 2,3-DHBA formed (hydroxyl radicals (.OH) [3]; 20 minutes after injection of 8 mM FeSO4): 91.23 pmol

ERG b-wave ratio (ischaemic eye vs contralateral normal eye) ([4]; 0.1 nmole i.v.i. 60 min before 60 min HIOP, 3 days after I/R): 32.2402±6.3012 | ERG b-wave ratio (ischaemic eye vs contralateral normal eye) ([4]; 0.1 nmole i.v.i. 60 min before 60 min HIOP, 5 days after I/R): 35.0948±4.6412 | ERG b-wave ratio (ischaemic eye vs contralateral normal eye) ([4]; 0.1 nmole i.v.i. 60 min before 60 min HIOP, 7 days after I/R): 47.0775±5.5396 | ERG b-wave ratio (ischaemic eye vs contralateral normal eye) [4, 10]: 48.3576±3.1633 | ERG b-wave ratio (ischaemic eye vs contralateral normal eye) [4, 11]: 56.4287±6.9891 | ERG b-wave ratio (ischaemic eye vs contralateral normal eye) [4, 12]: 65.8600±6.0998 | Effect on FeSO4 induced reduction in the b-wave amplitudes [2]: significantly alleviated
Compound: COc1cc(/C=C/C(=O)O)ccc1O [FA, ferulic acid]
Effect on I/R-induced changes in ChAT immunoreactivity ([5]; 0.1 nmole i.v.i. 60 min before ischaemia): only a partial counteracting effect | Effect on I/R-induced changes in ChAT immunoreactivity [5, 13]: obviously nullified | Attenuation of ischaemia-induced reduction in thickness of Thy-1 immunolabeling [6]: around 15% | Thy-1 mRNA/β-actin mRNA ratio (Thy-1 mRNA; 0.1 nmole i.v.i. 1 hour before ischaemia): 65.8968±11.9579 | Thy-1 mRNA/β-actin mRNA ratio (Thy-1 mRNA; [14]): 85.1745±10.3177 | Levels of 2,3-DHBA (.OH) in vitreous dialysate (hydroxyl radicals (.OH) [7]; 0.1 nmole pre-treatment): 3.48 pmol/15 µL perfusate | Attenuation of ischaemia-evoked increased 2,3-DHBA levels (hydroxyl radicals (.OH) [7]; 0.5 nmole pre-treatment, 60 minutes of ischaemia, vs vehicle-pre-treated ischaemic eyes): around 2 folds | Levels of 2,3-DHBA (.OH) in vitreous dialysate (hydroxyl radicals (.OH) [7]; 0.5 nmole pre-treatment): 2.8574±0.7186 pmole/15 μl perfusate | Effect on iron-induced changes in ChAT immunoreactivity [8]: counteracted | Effect on production of OH (2,3-DHBA) in siderosis (hydroxyl radicals (.OH) [3]; 100 μM, siderotic rats insulted by 8 mM FeSO4, vs saline): significantly decreased | Effect on formation of .OH (2,3-DHBA) in siderosis (hydroxyl radicals (.OH) [3]; i.v.i. 60 minutes before siderosis, 8 mM FeSO4): dose-dependently and significantly decreased

ERG b-wave ratio (ischaemic eye vs contralateral normal eye) [4, 10]: 17.9250±11.7135 | ERG b-wave ratio (ischaemic eye vs contralateral normal eye) [4, 11]: 17.1500±6.8996 | ERG b-wave ratio (ischaemic eye vs contralateral normal eye) [4, 12]: 20.1750±8.5027 | Effect on FeSO4 induced reduction in the b-wave amplitudes [2]: tended to alleviate
Compound: Cc1nc(C)c(C)nc1C [TMP, tetramethylpyrazine]
Effect on I/R-induced changes in ChAT immunoreactivity [5, 13]: not affected | Thy-1 mRNA/β-actin mRNA ratio (Thy-1 mRNA; [14]): 46.5876±14.4476 | Levels of 2,3-DHBA (.OH) in vitreous dialysate (hydroxyl radicals (.OH) [7]; 0.5 nmole pre-treatment): 4.6865±1.2661 pmole/15 μl perfusate
